Measured values taken from US20240352415A1, “METHODS FOR THE GENERATION OF HUMAN RETINAL GANGLION CELLS AND COMPOSITIONS, ASSAYS, DEVICES, AND KITS COMPRISING SAME” (priority 2021, published 2024).
Entries after “also recorded” stand apart in the source; their conditions may differ.

Key:
[1] = tested on: CONCEPT telencephalon-eye organoids; assay: Inhibition of FGF signaling in CONCEPT telencephalon-eye organoids with FGFR and MEK inhibitors (immunostaining readout); format: cell-based, human; conditions: inhibitor in culture medium starting on day 15, harvested day 24; PD 161570 1 μM, PD 0325901 2 μM; DMSO control
Description: CONCEPT telencephalon-eye organoids were generated as follows. A humidified incubator at 37° C. with 5% C02 was used for cell culture. H1 hESCs or iPSCs that were passaged using ReLeSR two or three days before experiments were detached using Dispase (GIBCO 17105041) and then harvested by centrifugation. After that, the cell pellets were suspended in ice-cold Matrigel. After gelling at 37° C. for 15-20 minutes, the hESC/Matrigel clump was gently dispersed in a N2B27 Medium (DMEM/F12+GlutaMAX (GIBCO):Neurobasal medium (GIBCO)=1:1, 0.5×B27 supplement (GIBCO), 0.5×N2 supplement (GIBCO), 0.1 mM β-mercaptoethanol, and 0.2 mM L-GlutaMax) for floating culture. With the starting day of cell differentiation designated as day 0, cysts with a single lumen formed on day 1. On days 3-5, individual cysts were manually picked using a curved Pasteur pipets under an inverted microscope and then seeded onto Matrigel-coated 24-well plates at a density of 2-6 cysts per well. Cysts spontaneously attached to the culture surface and grew. […] Culture mediums were changed every two or three days. To inactivate FGF signaling in CONCEPT organoids, FGFR1/2/3 inhibitor PD 161570 (1 μM; Tocris) and MEK1/2 inhibitor PD 0325901 (2 μM; Tocris) were supplemented to the culture medium staring on day 15. DMSO was used as a control. Treated CONCEPT organoids were harvested on day 24. CONCEPT telencephalon-eye organoids were fixed in 4% PFA for 15-30 minutes at room temperature and processed for immunostaining. These primary antibodies were used: […] Primary antibodies were visualized using Alexa Fluor 488-, 568-, and 647-conjugated secondary antibodies and imaged using a Zeiss AxioObserver Z1 microscope. […] In dual-color immunohistochemistry for PAX2 and FGF8, FGF8 was visualized using AP-conjugated anti mouse secondary antibody (Invitrogen A16038), and PAX2 was detected by biotin-conjugated anti rabbit secondary antibody (Invitrogen B2770) followed by […]-conjugated streptavidin (ThermoScientific 21130).

[2] = tested on: voltage-gated sodium channels; format: cell-based, human
[3] = tested on: voltage-gated potassium channels

| Structure (SMILES) | RGC somas and directional axon growth marked by CNTN2 expression [1] | optic disc cells marked by moderate-level PAX2 expression at the outer regions [1] | optic stalk cells marked by high-level PAX2 expression at the inner zone [1] | retinal (neuroretinal) progenitors marked by VSX2 expression [1] | effect on inward currents [2] | mean INa+SD at −10 mV (inward sodium current amplitude) [2] [pA] | effect on amplitude of outward currents [3] | mean IK±SD at 60 mV (outward potassium current amplitude) [3] [pA] |
| --- | --- | --- | --- | --- | --- | --- | --- | --- |
| CCN(CC)CCCCNc1ncc2cc(-c3c(Cl)cccc3Cl)c(NC(=O)NC(C)(C)C)nc2n1 [PD 161570] | drastically reduced or nearly absent | severely reduced | reduced | reduced | – | – | – | – |
| NC1=N[C@H](O)[C@H]2[C@H]3O[C@]4(O)O[C@@H]([C@@H](O)[C@@]2(N1)[C@@H]4O)[C@]3(O)CO [TTX, Tetrodotoxin-citrate] | – | – | – | – | abolished all inward currents | −18.3±13 | – | – |
| O=C(NOC[C@H](O)CO)c1ccc(F)c(F)c1Nc1ccc(I)cc1F [PD 0325901] | substantially reduced or nearly absent; also recorded: drastically reduced | nearly absent | largely remained | largely remained | – | – | – | – |
| CC[N+](CC)(CC)CC.[Cl-] [TEA, Tetraethylammonium-chloride] | – | – | – | – | – | – | significantly reduced | 279±201 |
